Measured values from ChEMBL document CHEMBL6078724, “Discovery of the first examples of right open reading frame kinase 2 (RIOK2) molecular glue degraders” (Eur J Med Chem, 2025).
Active and inactive are the calls of the source. The rule behind the calls is not given here.

Columns and labels:
Mus musculus = assay: In vivo molecular glue degradation activity at RNF126/RIOK2 in SCID-CB17 mouse xenografted with human MOLT-4 cells assessed as induction of RIOK2 degradation in tumor at 10 mg/kg, ip for 18 days measured after 4 hrs post-last dose; assay type: functional, organism-based; settings: time 436.0 hrs
[1] = target: T1, E3 ubiquitin-protein ligase RNF126/Serine/threonine-protein kinase RIO2 (Homo sapiens, UniProt Q9BVS4+Q9BV68); assay: Molecular glue degradation activity at RNF126/RIOK2 in human MOLT-4 cells assessed as induction protein degradation incubated for 12 hrs by immunoblot analysis; assay type: cell-based
MOLT-4 [2] = assay: Induction of cell cycle arrest in human MOLT-4 cells assessed as accumulation at G2/M phase incubated for 24 hrs by PI staining based flow cytometry; assay type: functional; settings: dose <= 900.0 nM
A549 = assay: Antiproliferative activity against human A549 cells incubated for 72 hrs by CCK8 assay; assay type: functional, cell-based; settings: A549, 72 h
[3] = Half life in Sprague-Dawley rat at 10 mg/kg, ip measured for 24 hrs; assay type: ADME, organism-based; settings: in vivo
[4] = target: T1, E3 ubiquitin-protein ligase RNF126/Serine/threonine-protein kinase RIO2; assay: Molecular glue degradation activity at RNF126/RIOK2 in human HeLa cells assessed as induction protein degradation by immunoblot analysis relative to control; assay type: cell-based
Target sequence in this assay (Q9BV68 2-311 partner limits assumed): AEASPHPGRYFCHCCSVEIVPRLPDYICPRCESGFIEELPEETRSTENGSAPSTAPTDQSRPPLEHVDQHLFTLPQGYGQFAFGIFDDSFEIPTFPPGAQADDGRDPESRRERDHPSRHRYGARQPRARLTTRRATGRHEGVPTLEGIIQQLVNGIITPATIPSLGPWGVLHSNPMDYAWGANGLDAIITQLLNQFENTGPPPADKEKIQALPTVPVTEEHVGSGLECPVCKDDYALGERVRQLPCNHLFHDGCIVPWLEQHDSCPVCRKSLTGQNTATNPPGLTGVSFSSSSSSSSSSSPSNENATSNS
Target sequence in this assay (Q9BVS4 whole entry): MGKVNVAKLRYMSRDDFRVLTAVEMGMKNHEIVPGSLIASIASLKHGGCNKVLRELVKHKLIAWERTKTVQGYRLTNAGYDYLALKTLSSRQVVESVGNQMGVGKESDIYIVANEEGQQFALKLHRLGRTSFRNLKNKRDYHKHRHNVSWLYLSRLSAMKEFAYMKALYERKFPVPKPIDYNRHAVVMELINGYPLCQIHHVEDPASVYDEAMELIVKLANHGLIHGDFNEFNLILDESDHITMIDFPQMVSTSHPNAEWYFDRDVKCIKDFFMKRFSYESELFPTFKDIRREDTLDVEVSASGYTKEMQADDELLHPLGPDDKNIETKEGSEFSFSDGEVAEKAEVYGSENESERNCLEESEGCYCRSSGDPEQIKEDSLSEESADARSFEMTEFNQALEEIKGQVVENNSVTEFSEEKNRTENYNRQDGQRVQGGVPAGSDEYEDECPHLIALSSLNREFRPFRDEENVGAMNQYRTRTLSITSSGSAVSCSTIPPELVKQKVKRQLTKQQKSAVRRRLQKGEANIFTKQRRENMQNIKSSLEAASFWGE

MOLT-4 [5] = assay: Induction of apoptosis in human MOLT-4 cells assessed as increase in cleaved caspase-9 level by Western blot analysis; assay type: functional, cell-based; settings: dose <= 900.0 nM
[6] = target: T1, E3 ubiquitin-protein ligase RNF126/Serine/threonine-protein kinase RIO2; assay: Molecular glue degradation activity at RNF126/RIOK2 in human MOLT-4 cells assessed as decrease in mTOR level at 500 nM incubated for 12 hrs by immunoblot analysis; assay type: cell-based
Target sequence in this assay (Q9BV68 2-311 partner limits assumed): as the sequence (Q9BV68 2-311 partner limits assumed) above
Target sequence in this assay (Q9BVS4 whole entry): as the sequence (Q9BVS4 whole entry) above

[7] = target: T1, E3 ubiquitin-protein ligase RNF126/Serine/threonine-protein kinase RIO2; assay: Molecular glue degradation activity at RNF126/RIOK2 in human U-937 cells assessed as induction protein degradation by immunoblot analysis; assay type: cell-based
Target sequence in this assay (Q9BVS4 whole entry): as above
Target sequence in this assay (Q9BV68 whole entry): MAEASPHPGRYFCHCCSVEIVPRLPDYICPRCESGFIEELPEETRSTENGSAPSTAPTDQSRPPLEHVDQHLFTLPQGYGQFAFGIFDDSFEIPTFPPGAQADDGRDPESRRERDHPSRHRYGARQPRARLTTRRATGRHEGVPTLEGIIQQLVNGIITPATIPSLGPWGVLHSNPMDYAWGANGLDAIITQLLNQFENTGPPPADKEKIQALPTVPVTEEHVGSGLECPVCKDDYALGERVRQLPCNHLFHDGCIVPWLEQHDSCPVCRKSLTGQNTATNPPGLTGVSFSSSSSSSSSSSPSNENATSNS

[8] = Clearance in Sprague-Dawley rat at 5 mg/kg, iv measured for 24 hrs; assay type: ADME, organism-based; settings: in vivo
MOLT-4 [9] = assay: Induction of apoptosis in human MOLT-4 cells at 900 nM incubated for 48 hrs by Annexin V-FITC/PI staining based flow cytometry relative to control; assay type: functional
[10] = Antiproliferative activity against human MRC5 cells incubated for 72 hrs by CCK8 assay; assay type: toxicity, cell-based
[11] = target: T1, E3 ubiquitin-protein ligase RNF126/Serine/threonine-protein kinase RIO2; assay: Molecular glue degradation activity at RNF126/RIOK2 in human MOLT-4 cells assessed as induction protein degradation at 1 uM incubated for 24 hrs by immunoblot analysis relative to control; assay type: cell-based
Target sequence in this assay (Q9BV68 2-311 partner limits assumed): as the sequence (Q9BV68 2-311 partner limits assumed) above
Target sequence in this assay (Q9BVS4 whole entry): as the sequence (Q9BVS4 whole entry) above

[12] = target: Serine/threonine-protein kinase RIO2 (Homo sapiens, UniProt Q9BVS4); assay: Inhibition of RIOK2 (unknown origin) ATPase activity incubated for 2 hrs in presence of ATP by ADP-Glo assay
Sequence of Serine/threonine-protein kinase RIO2 (Q9BVS4 whole entry): as above

[13] = target: T1, E3 ubiquitin-protein ligase RNF126/Serine/threonine-protein kinase RIO2; assay: Molecular glue degradation activity at RNF126/RIOK2 in human K562 cells assessed as induction protein degradation by immunoblot analysis; assay type: cell-based
Target sequence in this assay (Q9BVS4 whole entry): as above
Target sequence in this assay (Q9BV68 whole entry): as the sequence (Q9BV68 whole entry) above

MOLT-4 [14] = assay: Antitumor activity against human MOLT-4 cells xenografted in SCID-CB17 mouse at 10 mg/kg, ip for 18 days relative to control; assay type: functional; settings: MOLT-4, 432 h, time 18 day, read-out: TGI
[15] = target: T1, E3 ubiquitin-protein ligase RNF126/Serine/threonine-protein kinase RIO2; assay: Molecular glue degradation activity at RNF126/RIOK2 in human ASPC1 cells assessed as induction protein degradation by immunoblot analysis; assay type: cell-based
Target sequence in this assay (Q9BVS4 whole entry): as the sequence (Q9BVS4 whole entry) above
Target sequence in this assay (Q9BV68 whole entry): as the sequence (Q9BV68 whole entry) above

MOLT-4 [16] = assay: Induction of cell cycle arrest in human MOLT-4 cells assessed as decrease in CDK2 level by Western blot analysis; assay type: functional, cell-based; settings: dose <= 900.0 nM
HL-60 = assay: Antiproliferative activity against human HL-60 cells incubated for 72 hrs by CCK8 assay; assay type: functional, cell-based; settings: HL-60, 72 h
U-937 = assay: Antiproliferative activity against human U-937 cells incubated for 72 hrs by CCK8 assay; assay type: functional, cell-based; settings: U-937, 72 h
[17] = target: T1, E3 ubiquitin-protein ligase RNF126/Serine/threonine-protein kinase RIO2; assay: Molecular glue degradation activity at RNF126/RIOK2 in human HL-60 cells assessed as induction protein degradation by immunoblot analysis; assay type: cell-based
Target sequence in this assay (Q9BVS4 whole entry): as the sequence (Q9BVS4 whole entry) above
Target sequence in this assay (Q9BV68 whole entry): as the sequence (Q9BV68 whole entry) above

[18] = AUClast in Sprague-Dawley rat at 5 mg/kg, iv measured for 24 hrs; assay type: ADME, organism-based; settings: in vivo
[19] = Antiproliferative activity against mouse NIH3T3 cells incubated for 72 hrs by CCK8 assay; assay type: toxicity, cell-based
[20] = target: T1, E3 ubiquitin-protein ligase RNF126/Serine/threonine-protein kinase RIO2; assay: Molecular glue degradation activity at RNF126/RIOK2 in human HL-60 cells assessed as induction protein degradation by immunoblot analysis relative to control; assay type: cell-based
Target sequence in this assay (Q9BV68 2-311 partner limits assumed): as the sequence (Q9BV68 2-311 partner limits assumed) above
Target sequence in this assay (Q9BVS4 whole entry): as the sequence (Q9BVS4 whole entry) above

[21] = target: T1, E3 ubiquitin-protein ligase RNF126/Serine/threonine-protein kinase RIO2; assay: Molecular glue degradation activity at RNF126/RIOK2 in human MOLT-4 cells assessed as increase in ubiquitination of RIOK2 at 1 uM incubated for 10 hrs by immunoblot analysis; assay type: cell-based
Target sequence in this assay (Q9BV68 2-311 partner limits assumed): as the sequence (Q9BV68 2-311 partner limits assumed) above
Target sequence in this assay (Q9BVS4 whole entry): as the sequence (Q9BVS4 whole entry) above

MOLT-4 [22] = assay: Induction of apoptosis in human MOLT-4 cells assessed as decrease in PARP level by Western blot analysis; assay type: functional, cell-based; settings: dose <= 900.0 nM
[23] = target: T1, E3 ubiquitin-protein ligase RNF126/Serine/threonine-protein kinase RIO2; assay: Molecular glue degradation activity at RNF126/RIOK2 in JP-2-196-treated human MOLT-4 cells assessed as induction protein degradation at 1 uM incubated for 12 hrs by immunoblot analysis; assay type: cell-based
Target sequence in this assay (Q9BV68 2-311 partner limits assumed): as the sequence (Q9BV68 2-311 partner limits assumed) above
Target sequence in this assay (Q9BVS4 whole entry): as the sequence (Q9BVS4 whole entry) above

[24] = target: T1, E3 ubiquitin-protein ligase RNF126/Serine/threonine-protein kinase RIO2; assay: Molecular glue degradation activity at RNF126/RIOK2 in human U-937 cells assessed as induction protein degradation by immunoblot analysis relative to control; assay type: cell-based
[25] = Cmax in Sprague-Dawley rat at 5 mg/kg, iv measured for 24 hrs; assay type: ADME, organism-based; settings: in vivo
[26] = target: T1, E3 ubiquitin-protein ligase RNF126/Serine/threonine-protein kinase RIO2; assay: Molecular glue degradation activity at RNF126/RIOK2 in human MOLT-4 cells assessed as induction protein degradation at 1 uM incubated for 12 hrs by immunoblot analysis; assay type: cell-based
[27] = target: T1, E3 ubiquitin-protein ligase RNF126/Serine/threonine-protein kinase RIO2; assay: Molecular glue degradation activity at RNF126/RIOK2 in human HeLa cells assessed as induction protein degradation by immunoblot analysis; assay type: cell-based
Target sequence in this assay (Q9BVS4 whole entry): as above
Target sequence in this assay (Q9BV68 whole entry): as the sequence (Q9BV68 whole entry) above

[28] = Toxicity in SCID-CB17 mouse xenografted with human MOLT-4 cells assessed as body weight loss at 10 mg/kg, ip for 18 days; assay type: organism-based; settings: in vivo, 432 h, time 18 day
[29] = target: T1, E3 ubiquitin-protein ligase RNF126/Serine/threonine-protein kinase RIO2; assay: Molecular glue degradation activity at RNF126/RIOK2 in human OCILY3 cells assessed as induction protein degradation by immunoblot analysis; assay type: cell-based
Target sequence in this assay (Q9BVS4 whole entry): as the sequence (Q9BVS4 whole entry) above
Target sequence in this assay (Q9BV68 whole entry): as the sequence (Q9BV68 whole entry) above

[30] = Cmax in Sprague-Dawley rat at 10 mg/kg, ip measured for 24 hrs; assay type: ADME, organism-based; settings: in vivo
MOLT-4 [31] = assay: Induction of cell cycle arrest in human MOLT-4 cells assessed as decrease in cyclin B1 level by Western blot analysis; assay type: functional, cell-based; settings: dose <= 900.0 nM
[32] = AUClast in Sprague-Dawley rat at 10 mg/kg, ip measured for 24 hrs; assay type: ADME, organism-based; settings: in vivo
[33] = Half life in Sprague-Dawley rat at 5 mg/kg, iv measured for 24 hrs; assay type: ADME, organism-based; settings: in vivo
ASPC1 = assay: Antiproliferative activity against human ASPC1 cells incubated for 72 hrs by CCK8 assay; assay type: functional, cell-based; settings: ASPC1, 72 h
[34] = target: T1, E3 ubiquitin-protein ligase RNF126/Serine/threonine-protein kinase RIO2; assay: Molecular glue degradation activity at RNF126/RIOK2 in CHX-treated human MOLT-4 cells assessed as half life of RIOK2 at 2 uM by immunoblot analysis (reference value: 12.5 hrs); assay type: cell-based
HeLa = assay: Antiproliferative activity against human HeLa cells incubated for 72 hrs by CCK8 assay; assay type: functional, cell-based
[35] = target: T1, E3 ubiquitin-protein ligase RNF126/Serine/threonine-protein kinase RIO2; assay: Molecular glue degradation activity at RNF126/RIOK2 in MLN4924-treated human MOLT-4 cells assessed as induction protein degradation at 1 uM incubated for 12 hrs by immunoblot analysis; assay type: cell-based
[36] = target: T1, E3 ubiquitin-protein ligase RNF126/Serine/threonine-protein kinase RIO2; assay: Molecular glue degradation activity at RNF126/RIOK2 in human A549 cells assessed as induction protein degradation by immunoblot analysis; assay type: cell-based

COc1ccc(-c2ccc3[nH]c(=O)c4nnn(-c5ccc(N6CCN(C(=O)/C=C/C(=O)c7ccc(F)cc7)CC6)c(C(F)(F)F)c5)c4c3c2)cn1
Activity (Mus musculus): Active
DC50 [1]: 410 nM
Activity ([1]; dose <= 10.0 µM): Dose-dependent-effect
Activity (MOLT-4 [2]): Dose-dependent-effect
IC50 (A549): 1060 nM
half-life [3]: 8.1 h
Emax [4]: 50.3%
Activity (MOLT-4 [5]): Dose-dependent-effect
Activity [6]: Active
DC50 [7]: 1300 nM
clearance [8]: 69.2 mL/min/kg
Activity (MOLT-4 [9]): 57.11%
IC50 at 72 h [10]: 1090 nM
Emax [11]: 94.8%
IC50 [12]: 98 nM
DC50 [13]: > 10000 nM
inhibition in vivo at 10 mg/kg (MOLT-4 [14]): 18.6%
DC50 [15]: > 10000 nM
Activity (MOLT-4 [16]): Dose-dependent-effect
IC50 (HL-60): 340 nM
IC50 (U-937): 410 nM
DC50 [17]: 550 nM
AUClast [18]: 1210 ng·h/mL
IC50 at 72 h [19]: 1060 nM
Emax [20]: 74.6%
Activity [21]: Active
Activity (MOLT-4 [22]): Dose-dependent-effect
Activity [23]: inactive
Emax [24]: 60.4%
Cmax [25]: 1440 ng/mL
Activity [26]: Active
DC50 [27]: 8700 nM
Activity [28]: Non-toxic
DC50 [29]: 450 nM
Cmax [30]: 90.6 ng/mL
Activity (MOLT-4 [31]): Dose-dependent-effect
AUClast [32]: 1200 ng·h/mL
half-life [33]: 0.6 h
IC50 (ASPC1): 1130 nM
T1/2 [34]: 9.6 h
IC50 (HeLa): 580 nM
Activity [35]: inactive
DC50 [36]: > 10000 nM
